This is an account of results in patent EP0696280B1, “SUBSTITUTED PYRROLIDIN-3-YL-ALKYL-PIPERIDINES USEFUL AS TACHYKININ ANTAGONISTS” (MERRELL PHARMACEUTICALS INC., priority 1993, dated 1994).

Usually IC50 stands for the point on the concentration scale where inhibition reaches its midpoint.

Assay [1] concerns the target T1, human jejunal NK2 receptor (Homo sapiens, UniProt P21452).
T1 construct: expressed in transfected cells; host or cells: HSKR-1 cells (mouse 3T3 fibroblasts)
T1 sequence (P21452 1-398): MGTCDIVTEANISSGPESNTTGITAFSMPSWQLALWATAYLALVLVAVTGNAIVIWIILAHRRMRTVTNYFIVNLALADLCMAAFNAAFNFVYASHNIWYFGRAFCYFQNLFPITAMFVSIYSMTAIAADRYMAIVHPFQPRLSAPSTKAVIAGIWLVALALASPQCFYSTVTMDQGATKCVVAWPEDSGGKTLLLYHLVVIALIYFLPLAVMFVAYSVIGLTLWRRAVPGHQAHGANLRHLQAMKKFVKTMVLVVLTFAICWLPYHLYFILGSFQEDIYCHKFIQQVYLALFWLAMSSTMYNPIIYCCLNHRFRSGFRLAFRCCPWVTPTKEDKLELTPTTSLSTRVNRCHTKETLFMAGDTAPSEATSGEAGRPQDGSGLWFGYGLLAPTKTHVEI
The assay is described as follows: Antagonism of iodinated tachykinin binding to NK2 receptor (125iodohistidyl-1-neurokinin A, HSKR-1 cell membranes). The method, then: (§1) The NK1 receptor affinity of proposed tachykinin antagonists was devaluated in guinea pig lungs (Keystone Biologicals, Cleveland, OH), affinity for the NK2 receptor evaluated in HSKR-1 cells (which are mouse 3T3 fibroblasts expressing the human jejunal NK2 receptor) and NK-3 receptor affinity was evaluated in freshly collected guinea pig cerebral cortex. Tissues or cells were homogenized with a Polytron in 15 volumes of 50 mM Tris-HCl buffer (pH 7.4, 4°C) and centrifuged. The pellet was resuspended in Tris-HCl buffer and was centrifuged; the pellet was washed twice by resuspension. The final pellet was resuspended at a concentration of 40 mg/ml for tissues (guinea pig lung and cerebral cortex) and 20 mg/ml for cells in incubation buffer and remained at room temperature for at least 15 min prior to use. Receptor binding was initiated by addition of 250 µl membrane preparation in duplicate to 0.1 nM of the following radioligands: ^125I-Bolton Hunter Lys-3 labeled substance P; ^125iodohistidyl-1-neurokinin A; and ^125I-Bolton Hunter labeled Lys-4 eledoisin in a final volume of 500 µl of buffer containing 50 mM Tris-HCl (pH 7.4 at room temperature), 0.1% bovine serum albumin, 2 mM MnCl2, 40 µg/ml bacitracin, 4 µg/ml leupeptin and chymostatin, 1 µM thiorphan and various doses of the putative tachykinin antagonists. Incubations were performed at room temperature for 90 min (NK1 receptor assays) or 2 hr (NK2 and NK3 receptor assays); binding was terminated by addition of 50 mM Tris-HCl buffer (pH 7.4, 4°C) and filtration under vacuum through GF/B filters presoaked with 0.1% polyethyleneimine (NK1 receptor assays) or 0.5% bovine serum albumin (NK2 and NK3 receptor assays). Filter bound radioactivity was quantitated in a gamma counter. Nonspecific binding was defined as binding in the presence of 1 µM substance P, neurokinin A, or eledoisin. Specific binding was calculated by subtracting nonspecific binding from total binding. Competition of iodinated SP, NKA, or eledoisin binding by test compounds or standards was expressed as a percentage of this maximum competition. IC50 values (concentration required to inhibit 50% of receptor binding) were generated for each of the test compounds by nonlinear regression using an iterative curve fitting program (GraphPAD Inplot, San Diego, CA).

Another assay concerns the target T2, NK1 receptor (Cavia porcellus, UniProt P30547).
T2 construct: Tissues or cells were homogenized with a Polytron in 15 volumes of 50 mM Tris-HCl buffer; tissue Keystone Biologicals, Cleveland, OH; host or cells: guinea pig lung membranes
As to the kind of experiment: Antagonism of iodinated tachykinin binding to NK1 receptor (125I-Bolton Hunter Lys-3 labeled substance P, guinea pig lung membranes). Here is the method:
as §1

Assay [2] concerns capsaicin-induced respiratory effects. The assay is described as follows: Antagonism of capsaicin aerosol induced respiratory effects in conscious guinea pigs (whole body plethysmography). Conditions: for DYSPNEA ONSET / MAXIMUM PRESSURE INCREASE (mmH2O) / SRE NUMBER*: mean and SEM; for SRE NUMBER*: number of coughs/gasps during 19 min exposure. It is filed as in vivo, guinea pig. The method, then:
(§2) In vivo experiments were performed using male Duncan Hartley guinea pigs (250-350g). Changes in conscious breathing patterns were monitored in four animals simultaneously using modified whole body plethysmography consisting of four small plexiglass boxes each connected to a reference box via Validyne DP 45-16 differential pressure transducers. The 4 boxes were equipped with an air supply line (also used for aerosol delivery) and an exhaust air line. Supply and exhaust lines were of the same length and narrow bore and arose from a common supply chamber and vented to a common exhaust chamber. This system was used to ensure that fluctuations in supply air and atmospheric pressure would remain in phase and be eliminated from the net signal by the differential pressure transducers. The analog pressure signals were digitalized via a Data Translation DT2821 A to D board. Data were collected at a rate of 100 samples/second/animal. Each cycle of pressure change was analyzed using the following parameters: rising and falling slope determined between minimum and maximum pressures, the ratio of rising over falling slope, and the magnitude of the change between initial trough pressure and peak cycle pressure. Using these values (and observing the animals) the pressure cycles were characterized into normal breaths, forced exhalations (apparent by abdominal heaving), significant respiratory events (SREs; usually coughs, less often sneezes or gasps which were characterized by transient, extremely large pressure increases which were distinguishable from noise) and movement/noise with a PCAT 286 running a System V UNIX operating system. Dyspnea was defined as a significant, sustained increase in plethysmograph pressure which was associated with an observable shift to labored breathing in the animal.
(§3) During the course of a typical experiment in which airway responsiveness to various bronchoconstricting agents was examined, aerosols were delivered for 19 min (0.33 ml/min) using a DeVilbiss Ultraneb 99 ultrasonic nebulizer and animals monitored during this time. Prior to nebulization, 1 min of resting breathing was collected to establish a baseline pressure. […] The vehicle for nebulization of all bronchoconstrictive agents was phosphate buffered saline (pH 7.4) which elicited no respiratory effects itself. Putative tachykinin antagonists were administered either (i.v.) 20 min prior to onset of aerosol exposure or orally 1 hour prior to onset (to guinea pigs after an overnight fast).
Capsaicin aerosol is known to promote release of the tachykinins SP and NKA from sensory nerves in the airways of guinea pigs which may then act upon NK1 and NK2 receptors, respectively to elicit respiratory effects. […]
Values are mean and SEM of data derived from number of animals indicated in parenthesis. Putative tachykinin antagonists were administered intravenously 20 min prior to initiation of capsaicin aerosol (0.001%). *SRE number indicates the number of coughs/gasps which occurred during the 19 min capsaicin exposure period.
Values are mean and SEM of data derived from number of animals indicated in parenthesis. Putative tachykinin antagonists were administered by oral gavage 1 hr prior to initiation of capsaicin aerosol (0.001%). *SRE number indicates the number of coughs/gasps which occurred during the 19 min capsaicin exposure period.

Assay [3] has as its system NKA-induced respiratory effects. As to the kind of experiment: Antagonism of NKA aerosol induced respiratory effects in conscious guinea pigs (whole body plethysmography). The conditions noted are these: 20 min prior to NKA aerosol (0.05%); for DYSPNEA ONSET: mean and SEM. It is filed as in vivo, guinea pig. Here is the method:
as §2, §3
Table 6 illustrates the effects of the compounds of Example 3; Example 20A; and Example 5A on respiratory effects induced by NKA aerosol. […] These effects were dose dependent i.e. the higher the dose of compound, the greater attenuation of NKA-mediated effects. […]
Compounds were administered 20 min prior to initiation of NKA aerosol (0.05%). Values for each treatment represent the mean and SEM of data from 5-37 animals per dose.

The mark [4] stands for this setting: HSKR-1 cells (mouse 3T3 fibroblasts expressing human jejunal NK2 receptor), mean of several experiments, read-out: NK-2 IC50.
Setting [5] is: guinea pig lungs, mean of several experiments, read-out: NK-1 IC50.
Setting [6] is: 1 mg/kg intravenously 20 min prior to capsaicin aerosol (0.001%).
Where [7] appears, read: 2.5 mg/kg intravenously 20 min prior to capsaicin aerosol (0.001%).
Setting [8] is: 5 mg/kg intravenously 20 min prior to capsaicin aerosol (0.001%).
[9] abbreviates: 10 mg/kg intravenously 20 min prior to capsaicin aerosol (0.001%).

Structures can show the parent of a compound that is named as a salt. Where two headings read alike, the source gives them in different places.

T2 sequence (P30547 whole entry): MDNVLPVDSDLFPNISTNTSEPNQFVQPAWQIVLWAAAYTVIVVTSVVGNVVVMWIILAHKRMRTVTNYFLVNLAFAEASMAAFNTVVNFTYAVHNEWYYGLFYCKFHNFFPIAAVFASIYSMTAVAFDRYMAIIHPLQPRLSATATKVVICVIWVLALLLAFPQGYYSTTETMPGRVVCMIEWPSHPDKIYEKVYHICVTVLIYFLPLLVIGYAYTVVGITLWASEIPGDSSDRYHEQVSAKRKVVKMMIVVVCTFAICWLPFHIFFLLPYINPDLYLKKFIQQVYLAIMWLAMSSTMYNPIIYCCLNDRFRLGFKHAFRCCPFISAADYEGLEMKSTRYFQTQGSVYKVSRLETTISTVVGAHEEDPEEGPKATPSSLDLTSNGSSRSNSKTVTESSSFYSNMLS

As to `COc1cc(C(=O)N2CCC(CCN3CCC(C(N)=O)(c4ccccc4)CC3)(c3ccccc3)C2)cc(OC)c1OC` (stereo not drawn) [Example 22A, 1-[2-[3-phenyl-1-(3,4,5-trimethoxy-benzoyl)-pyrrolidin-3-yl]-ethyl]-4-phenyl-piperidine-4-carboxylic acid amide hydrochloride], the IC50 in assay [1] turned out to be 1190 nM; on NK1 receptor it was 17.4 nM.

With `NC(=O)C1(c2ccccc2)CCN(CCC2(c3ccc4ccccc4c3)CC(=O)N(Cc3ccccc3)C2)CC1` (racemic) [Example 12], the IC50 in assay [1] (setting [4]) worked out at 179 nM; at NK1 receptor (setting [5]), 810 nM.

In the case of `COc1ccccc1C(=O)N1CCC(CCN2CCC(C(N)=O)(c3ccccc3)CC2)(c2ccc(Cl)c(Cl)c2)C1` (stereo not drawn) [Example 13, 1-[2-[3-(3,4-dichloro-phenyl)-1-(2-methoxy-benzoyl)-pyrrolidin-3-yl]-ethyl]-4-phenyl-piperidine-4-carboxylic acid amide], the IC50 in assay [1] (setting [4]) is 14 nM.

Regarding `COC(=O)CC[C@H](NC(=O)C1(c2ccccc2)CCN(CCC2(c3ccc(Cl)c(Cl)c3)CCN(C(=O)c3ccccc3)C2)CC1)C(=O)OC` (stereo partly drawn) [Example 6], the figures for the IC50 (in assay [1]; on NK1 receptor (setting [5])) were 15 nM and 182 nM, respectively.

In the case of `NC(=O)C1(c2ccccc2)CCN(CCC2(c3ccc4ccccc4c3)CCN(C(=O)c3ccccc3)C2)CC1` (racemic) [Example 8, 1-[2-(1-benzoyl-3-napthalen-2-yl-pyrrolidin-3-yl)-ethyl]-4-phenyl-piperidine-4-carboxylic acid amide], the IC50 in assay [1] (setting [4]) was 94 nM; on NK1 receptor (setting [5]) it was 1480 nM.

As to `COc1cc(C(=O)N2CCC(CCN3CCC(C(N)=O)(c4ccccc4)CC3)(c3ccc(Cl)c(Cl)c3)C2)cc(OC)c1OC.Cl` (single isomer, unassigned; (+)) [Example 20A, (+)-1-[2-[3-(3,4-dichloro-phenyl)-1-(3,4,5-trimethoxy-benzoyl)-pyrrolidin-3-yl] -ethyl]-4-phenyl-piperidine-4-carboxylic acid amide hydrochloride], the “DYSPNEA INCIDENCE” value was 77.8% (7/9) in assay [2] (setting [6]); 100% (10/10) in assay [2] (setting [7]); 44.4% (4/9) in assay [2] (setting [8]); 55.6% (5/9) in assay [2] (setting [9]); 100% (10/10) in assay [3] (1 mg/kg); 90% (9/10) in assay [3] (5 mg/kg). In addition, in assay [3] (10 mg/kg), the “DYSPNEA INCIDENCE” value is 70% (7/10). The “DYSPNEA ONSET” value came to 331 ± 22 s in assay [2] (setting [6]); 426 ± 57 s in assay [2] (setting [7]); 597 ± 186 s in assay [2] (setting [8]); 592 ± 71 s in assay [2] (setting [9]); 451 ± 30 s in assay [3] (1 mg/kg); 706 ± 82 s in assay [3] (5 mg/kg). Further, the “DYSPNEA ONSET” value in assay [3] (10 mg/kg) stood at 829 ± 105 s. Moreover, the “MAXIMUM PRESSURE INCREASE (mmH2O)” value in assay [2] (setting [6]) is listed as 1.0 ± 0.1 mmH2O; in assay [2] (setting [7]) it was 0.6 ± 0.1 mmH2O; in assay [2] (setting [8]) it was 0.8 ± 0.06 mmH2O; in assay [2] (setting [9]), 0.8 ± 0.1 mmH2O. The “SRE NUMBER*” value in assay [2] (setting [6]) is on record as 9.9 ± 2.7; in assay [2] (setting [7]), 8.3 ± 1.6; in assay [2] (setting [8]), 4.4 ± 1.9; in assay [2] (setting [9]), 3.3 ± 1.1.

On to `COc1ccc(C2(CCN3CCC(C(N)=O)(c4ccccc4)CC3)CCN(C(=O)c3cc(OC)c(OC)c(OC)c3)C2)cc1OC` (stereo not drawn) [Example 23, 1-[2-[3-(3,4-dimethoxy-phenyl)-1-(3,4,5-trimethoxy-benzoyl)-pyrrolidin-3-yl]-ethyl]-4-phenyl-piperidine-4-carboxylic acid amide], for which the values for the IC50 (in assay [1] (setting [4]); at NK1 receptor) were 2680 nM and 20 nM, respectively.
